Results as given in patent EP4653444A1, “FUSED TRICYCLIC COMPOUND AS KINASE INHIBITOR” (Hangzhou Innogate Pharma Co., Ltd., priority 2023, dated 2024).
pIC50: −log10 of the molar value. Like-named read-outs stand apart in the source and are kept apart here.

Target: T1, AXL (Homo sapiens, UniProt P30530)
T1 sequence (P30530 26-894): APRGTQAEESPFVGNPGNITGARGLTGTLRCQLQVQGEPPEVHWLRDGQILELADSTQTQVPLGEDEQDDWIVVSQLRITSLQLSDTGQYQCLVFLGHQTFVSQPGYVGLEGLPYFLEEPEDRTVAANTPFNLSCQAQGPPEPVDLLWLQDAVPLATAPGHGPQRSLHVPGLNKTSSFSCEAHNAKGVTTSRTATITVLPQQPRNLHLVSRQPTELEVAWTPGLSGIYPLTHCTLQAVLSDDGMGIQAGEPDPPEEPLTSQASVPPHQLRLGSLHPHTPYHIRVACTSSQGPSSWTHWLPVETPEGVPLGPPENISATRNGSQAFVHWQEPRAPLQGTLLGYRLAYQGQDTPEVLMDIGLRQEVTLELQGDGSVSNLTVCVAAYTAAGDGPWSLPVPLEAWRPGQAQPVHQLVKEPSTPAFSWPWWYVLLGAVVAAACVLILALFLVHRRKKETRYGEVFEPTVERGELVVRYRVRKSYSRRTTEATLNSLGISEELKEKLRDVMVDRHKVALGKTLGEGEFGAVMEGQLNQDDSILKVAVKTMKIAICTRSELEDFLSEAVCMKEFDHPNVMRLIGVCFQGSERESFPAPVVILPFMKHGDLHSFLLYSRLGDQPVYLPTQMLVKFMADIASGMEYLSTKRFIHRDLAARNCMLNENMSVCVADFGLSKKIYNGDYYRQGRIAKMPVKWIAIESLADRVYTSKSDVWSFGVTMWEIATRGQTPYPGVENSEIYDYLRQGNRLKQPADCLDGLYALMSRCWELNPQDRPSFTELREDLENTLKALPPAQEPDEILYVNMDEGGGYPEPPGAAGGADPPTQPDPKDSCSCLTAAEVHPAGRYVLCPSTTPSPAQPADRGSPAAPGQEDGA
Test: AXL kinase activity inhibition assay (Mobility shift assay)
Type: biochemical
Protocol: Testing compound inhibitory activity against FLT3 and AXL kinases using Mobility shift assay. Compounds were dissolved in 100% DMSO to prepare 10 mM stock solutions. Prepare 1× Kinase Buffer. Test compounds were serially diluted in 5-fold gradients, and 250 nL of 100× final concentration compounds were transferred to destination plate 3573 using an Echo 550 liquid handler. A 2.5× final concentration kinase solution was prepared in 1× Kinase Buffer. Then, 10 µL of the 2.5× kinase solution was added to both compound wells and positive control wells, while 10 µL of 1× Kinase Buffer was added to negative control wells. The plate was centrifuged at 1000 rpm for 30 seconds, mixed by orbital shaking, and incubated at room temperature for 10 minutes. A 5/3× final concentration mixture of ATP and Kinase Substrate 25 was prepared in 1× Kinase Buffer. The reaction was initiated by adding 15 µL of the 5/3× ATP/substrate mixture. […] Conversion rates were measured using a Caliper EZ Reader. %Inhibition = (Conversion%_max - Conversion%_sample)/(Conversion%_max - Conversion%_min) × 100. Where: Conversion%_sample: Conversion rate reading of test samples; Conversion%_min: Mean value of negative control wells (representing conversion rate without enzyme activity); Conversion%_max: Mean value of positive control wells (representing conversion rate without compound inhibition). […]

Row | SMILES | pIC50 | pIC50 (Table 3, read-out: AXL (IC50))
1 | COc1cc2c(cc1Nc1ncc(Cl)c(Nc3ccccc3S(=O)(=O)C(C)C)n1)OC[C@@H]1CN(C3CCN(C)CC3)CCN21 [Compound C2S] | > 7.52 | 
2 | COc1cc2c(cc1Nc1ncc(Cl)c(Nc3ccccc3S(=O)(=O)C(C)C)n1)OC[C@@H]1CN(C3CCOCC3)CCN21 [Compound C1S] |  | > 7.52
